In patent US20260216057A1, “PHARMACEUTICAL COMPOSITIONS FOR HERPES VIRUS” (priority 2022, published 2026):

How the values were obtained:
[1] = Example 13: Compound 1 IV PK study in dog; type: in vivo, male non-naïve Beagle dogs; conditions: male, beagle, plasma, 0.15 mg/kg, read-out: Dog t1/2 (converted)
Description: The LC-MS methodology and conditions used to analyse Compound 1 in plasma samples from the intra-venous injection PK studies (Example 13) are described in Tables 5 to 7. A 0.15 mg/mL solution of Compound 1 in 10% DMSO, 10% Solutol HS15 and 80% Saline was prepared as follows: • 1) A stock solution of Compound 1 in DMSO was prepared. • 2) An equal volume of the Compound 1 stock solution and Solutol HS15 were combined and mixed. • 3) The above solution was diluted with normal saline to reach the target concentration. The final formulation was a clear solution. Male non-naïve beagles were used for the dog PK study. The animals had free access to food and water. […] At each time point, approximately 0.5 mL of whole blood was collected into K2EDTA tubes. Blood samples were put on ice and centrifuged at 2000 g for 5 min to obtain plasma samples within 15 minutes. Plasma samples were stored at approximately −70° C. until analyzed by LC-MS.

[2] = Example 7: Compound 1 aqueous suspension SC PK study in rat; type: in vivo, male Sprague Dawley rats; conditions: aqueous suspension (Form A), 10 mg/kg
Description: The LC-MS methodology and conditions used to analyse the helicase-primase inhibitor Compound 1 in plasma samples from the sub-cutaneous injection PK studies (Examples 7 and 10-12) are described in Table 3 and Table 4. An aqueous suspension of crystalline Compound 1 (Form A) was prepared in a 0.9% NaCl+0.5% polysorbate 80 vehicle at a concentration of 3.0 mg/mL as described in Example 2. The suspension was then dosed to male SD rats at 10 mg/kg according to the Example 2 animal dosing method.

Plasma protein binding = type: in vitro ADME; conditions: read-out: free fraction of the total plasma concentration
[3] = Example 1: pritelivir aqueous suspension SC PK study in rat; type: in vivo, male Sprague Dawley rats; conditions: aqueous suspension (dihydrate), 33.33 mg/kg and 166.67 mg/kg, both dosing levels
Description: (§1) The LC-MS methodology and conditions used to analyse pritelivir in plasma samples from the PK studies described in Examples 1 to 5 are provided in Table 1.
An aqueous suspension of crystalline pritelivir free base (dihydrate) in a 0.9% NaCl+0.5% polysorbate 80 vehicle at concentrations of 10.0 mg/mL and 50.0 mg/mL was prepared as follows: • 1) Vehicle (0.9% w/w NaCl and 0.5% w/w polysorbate 80) was prepared by dissolving NaCl and polysorbate 80 in water. • 2) Appropriate amount of crystalline pritelivir free base (dihydrate) was weighed and added to the vehicle. • 3) Mixture was vortexed for 1 minute, stirred for 10 minutes and then sonicated for 15 minutes. • 4) The final dosing formulation was a homogenous white cloudy suspension.
Male Sprague Dawley (SD) rats with ~300 g body weight (ages 6-8 weeks) were used for the pharmacokinetic study. The animals had free access to food and water. The pritelivir suspensions described above were administered via sub-cutaneous injection to each animal group (n=3) with a dosing volume of 3.33 mL/kg to achieve 33.33 mg/kg and 166.67 mg/kg doses.
(§2) At each time point, approximately 200 μL whole blood was collected in a K2EDTA tube via the jugular vein. Blood samples were put on ice and centrifuged at 2000 g for 5 min to obtain a plasma sample within 15 minutes. Plasma samples were stored at approximately −70° C. until analyzed by LC-MS.

plasma protein = conditions: cited from earlier work
genital HSV = conditions: oral, 28 days, cited from earlier work
[4] = Example 2: pritelivir aqueous suspension SC PK study in rat at lower dose; type: in vivo, male Sprague Dawley rats; conditions: aqueous suspension (dihydrate), 10 mg/kg
Description: as §1
An aqueous suspension of crystalline pritelivir free base (dihydrate) in a 0.9% NaCl+0.5% polysorbate 80 vehicle at a concentration of 3.0 mg/mL was prepared as follows: • 1) Vehicle (0.9% w/w NaCl and 0.5% w/w polysorbate 80) was prepared by dissolving NaCl and polysorbate 80 in water. • 2) Appropriate amount of crystalline pritelivir free base (dihydrate) was weighed and added to the vehicle. • 3) Mixture was stirred for 15 minutes, then vortexed for 1 minute and then sonicated for 10 minutes. • 4) The final dosing formulation was a homogenous white cloudy suspension.
Male SD rats with 230-250 g body weight, ages 6-8 weeks were used for the rat PK study. The animals had free access to food and water. The prepared suspension was administered via subcutaneous injection to each animal group (n=3) with a dosing volume of 3.33 mL/kg to achieve a 10 mg/kg dose.
At each time point, approximately 200 μL whole blood was collected via the jugular vein into K2EDTA tubes. Blood samples were put on to ice and centrifuged at 2000 g for 5 min to obtain plasma sample within 15 minutes. Plasma samples were stored at approximately −70° C. until analyzed by LC-MS.

HSV-1 = conditions: Field et al. (2013); read-out: in-vitro EC50 against HSV-1; cited from earlier work
[5] = Example 5: comparative pritelivir solution PK study in rat following IV/SC administration; type: in vivo, male Sprague Dawley rats; conditions: for AUC(0-t): male, Sprague Dawley, plasma, solution, n = 3
Description: A solution of crystalline pritelivir free base (dihydrate) in 5% NMP, 5% Solutol HS15 & 90% saline at a concentration of 0.5 mg/mL was prepared as follows: • 1) A stock solution of 10 mg/mL of pritelivir (dihydrate) in NMP was prepared. • 2) Equal volumes of the pritelivir stock solution and Solutol HS15 were combined and mixed. • 3) The above solution was diluted with normal saline to reach target 0.5 mg/mL pritelivir concentration. The formulation was a clear solution.
Male Sprague Dawley (SD) rats with ~300 g body weight (ages 6-8 weeks) were used for the pharmacokinetic study. The animals had free access to food and water. The pritelivir solution described above was administered via intravenous injection to animals (n=3) with a dosing volume of 2 mL/kg to achieve a 1 mg/kg dose. For subcutaneous injection, the dosing volume of 10 mL/kg was utilized to achieve a 5 mg/kg dose.
as §2, with “LC-MS according to the method described above.” for “LC-MS.”

SMILES | half-life [1] | prolonged exposure out to (length of the study) [2] | fraction unbound (Plasma protein binding) | prolonged exposure out to (length of the study) [3] | protein binding (plasma protein) | rate of genital HSV shedding (genital HSV; at high doses, vs placebo) | number of days with lesions (genital HSV; men and women with genital herpes) | prolonged exposure out to (length of the study) [4] | EC50 (HSV-1) | F ([5]; intravenous (IV), 1 mg/kg) | AUC(0-t) ([5]; intravenous (IV), 1 mg/kg) | AUC(0-t) ([5]; subcutaneous (SC), 5 mg/kg)
Cc1nc(N2CCCN(c3ccc(-c4cc(F)ccc4F)cc3)C2=O)sc1S(N)(=O)=O [Compound 1, 2-(3-(2′,5′-difluoro-[1,1′-biphenyl]-4-yl)-2-oxotetrahydropyrimidin-1(2H)-yl)-4-methylthiazole-5-sulfonamide] | 34.9 h | at least 144 hours | – | – | – | – | – | – | – | – | – | –
Cc1nc(N(C)C(=O)Cc2ccc(-c3ccccn3)cc2)sc1S(N)(=O)=O [pritelivir, N-methyl-N-(4-methyl-5-sulfamoyl-1,3-thiazol-2-yl)-2-[4-(pyridin-2-yl)phenyl]acetamide] | – | – | 0.02 to 0.03 | at least 720 hours | 97-98% | reduced the rate of genital HSV shedding | reduced the number of days with lesions | at least 144 hours | 26 nM | 100% | 31.8 µg·h/mL | 185 µg·h/mL
